Measurements published in patent US11267812B2 (Mirati Therapeutics, Inc., priority 2016, dated 2022).

System: Phospho-ERK in NCI-H358 cells expressing KRas G12C
Assay: Cellular inhibition of KRas G12C by Phospho-ERK measurement in NCI-H358 cells
Assay type: cell-based
Details: Homo sapiens; NCI-H358 cells, 3 hours compound treatment; read-out: IC50 (pERK(Thr202/Tyr204) normalized with GAPDH)
Description: The cellular inhibition of KRAs G12C by exemplary compounds of the present invention was determined by measuring the amount of a downstream marker of KRas activity, phosphorylated ERK (“Phospho-ERK”).
NCI-H358 cells (ATCC CRL-5807) express KRas G12C and were grown in RPMI medium supplemented with 10% fetal bovine serum, penicillin/streptomycin and 10 mM HEPES. Cells were plated in poly-D-Lysine coated 96-well plates at a concentration of 50,000 cells/well and allowed to attach for 8-12 hours. Diluted compounds were then added at a final concentration of 0.5% DMSO. After 3 hours, the medium was removed, 150 μL of 4% formaldehyde was added and the plates were incubated for 20 minutes. The plates were washed with PBS, and permeabilized using 150 μL of ice cold 100% methanol for 10 minutes. Non-specific antibody binding to the plates was blocked using 100 μL Licor Blocking Buffer (Li-Cor Biotechnology, Lincoln Nebr.) for 1 hour at room temperature. Positive control samples and samples lacking cells were parallel processed with test samples as standards.
The amount Phospho-ERK was determined using an antibody specific for the phosphorylated form of ERK and compared to the amount of GAPDH. Primary antibodies used for detection were added as follows: Phospho-ERK (Cell Signaling cs9101) diluted 1:500 and GAPDH (Millipore MAB374) diluted 1:5000 in Licor block+0.05% Tween 20. The plates were incubated for 2 hours at room temperature. The plates were washed with PBS+0.05% Tween 20.
Secondary antibodies used to visualize primary antibodies were added as follows: Anti-rabbit-680 diluted 1:1000 and Anti-mouse-800 diluted 1:1000 in Licor Block+0.050 Tween 20 and incubated for 1 hour at room temperature. The plates were washed with PBS+0.05% o Tween 20. A100 L aliquot of PBS was added to each well and the plates were read on a LICOR AERIUS plate reader.
The pERK(Thr202/Tyr204) signal was normalized with the GAPDH signal and percent of DMSO control values were calculated. IC50 values were generated using a 4 parameter fit of the dose response curve. Key: “A”≥0.001-≤1 μM; “B”[…] and ND=not determined.

| SMILES | IC50 [nM] |
| --- | --- |
| C=CC(=O)N1CCN(c2nc(OC(C)CN(C)C)nc3c2CCN(c2cc(O)cc4ccccc24)C3)CC1 (centres unmarked) [Example 11, 1-(4-(2-((1-(dimethylamino)propan-2-yl)oxy)-7-(3-hydroxynaphthalen-1-yl)-5,6,7,8-tetrahydropyrido[3,4-d]pyrimidin-4-yl)piperazin-1-yl)prop-2-en-1-one] | 1 to 1000 |
| C=CC(=O)N1CCN(c2nc(O[C@H](C)CN(C)C)nc3c2CCN(c2cc(O)cc4ccccc24)C3)CC1 [Example 19, (R)-1-(4-(2-((1-(dimethylamino)propan-2-yl)oxy)-7-(3-hydroxynaphthalen-1-yl)-5,6,7,8-tetrahydropyrido[3,4-d]pyrimidin-4-yl)piperazin-1-yl)prop-2-en-1-one] | 1 to 1000 |
| C=CC(=O)N1CCN(c2nc(OC(C)CCN(C)C)nc3c2CCN(c2cc(O)cc4ccccc24)C3)CC1 (centres unmarked) [Example 21, 1-(4-(2-((4-(dimethylamino)butan-2-yl)oxy)-7-(3-hydroxynaphthalen-1-yl)-5,6,7,8-tetrahydropyrido[3,4-d]pyrimidin-4-yl)piperazin-1-yl)prop-2-en-1-one] | 1 to 1000 |
| C=CC(=O)N1CCN(c2nc(OCCCN3CCCCC3)nc3c2CCN(c2cc(O)cc4ccccc24)C3)CC1 [Example 38, 1-(4-(7-(3-hydroxynaphthalen-1-yl)-2-(3-(piperidin-1-yl)propoxy)-5,6,7,8-tetrahydropyrido[3,4-d]pyrimidin-4-yl)piperazin-1-yl)prop-2-en-1-one] | 1 to 1000 |
| C=CC(=O)N1CCN(c2nc(OCCCN3CCCC3)nc3c2CCN(c2cc(O)cc4ccccc24)C3)CC1 [Example 39, 1-(4-(7-(3-hydroxynaphthalen-1-yl)-2-(3-(pyrrolidin-1-yl)propoxy)-5,6,7,8-tetrahydropyrido[3,4-d]pyrimidin-4-yl)piperazin-1-yl)prop-2-en-1-one] | 1 to 1000 |
| C=CC(=O)N1CCN(c2nc(OCCCCN(C)C)nc3c2CCN(c2cc(O)cc4ccccc24)C3)CC1 [Example 40, 1-(4-(2-(4-(dimethylamino)butoxy)-7-(3-hydroxynaphthalen-1-yl)-5,6,7,8-tetrahydropyrido[3,4-d]pyrimidin-4-yl)piperazin-1-yl)prop-2-en-1-one] | 1 to 1000 |
| C=CC(=O)N1CCN(c2nc(OCCN3CCCCC3)nc3c2CCN(c2cc(O)cc4ccccc24)C3)CC1 [Example 52, 1-[4-[7-(3-hydroxy-1-naphthyl)-2-[2-(1-piperidyl)ethoxy]-6,8-dihydro-5H-pyrido[3,4-d]pyrimidin-4-yl]piperazin-1-yl]prop-2-en-1-one] | 1 to 1000 |
| C=CC(=O)N1CCN(c2nc(OCC(CO)N(C)C)nc3c2CCN(c2cc(O)cc4ccccc24)C3)CC1 (centres unmarked) [Example 55, 1-(4-(2-(2-(dimethylamino)-3-hydroxypropoxy)-7-(3-hydroxynaphthalen-1-yl)-5,6,7,8-tetrahydropyrido[3,4-d]pyrimidin-4-yl)piperazin-1-yl)prop-2-en-1-one] | 1 to 1000 |
| C=CC(=O)N1CCN(c2nc(O[C@H](C)CN3CCOCC3)nc3c2CCN(c2cc(O)cc4ccccc24)C3)CC1 [Example 56, (R)-1-(4-(7-(3-hydroxynaphthalen-1-yl)-2-((1-morpholinopropan-2-yl)oxy)-5,6,7,8-tetrahydropyrido[3,4-d]pyrimidin-4-yl)piperazin-1-yl)prop-2-en-1-one] | 1 to 1000 |
| C=CC(=O)N1CCN(c2nc(O[C@H](C)CN3CC[C@H](OC)C3)nc3c2CCN(c2cc(O)cc4ccccc24)C3)CC1 [Example 64, 1-(4-(7-(3-hydroxynaphthalen-1-yl)-2-(((R)-1-((S)-3-methoxypyrrolidin-1-yl)propan-2-yl)oxy)-5,6,7,8-tetrahydropyrido[3,4-d]pyrimidin-4-yl)piperazin-1-yl)prop-2-en-1-one] | 1 to 1000 |
| C=CC(=O)N1CCN(c2nc(O[C@@H]3CCCN(C)C3)nc3c2CCN(c2cc(O)cc4ccccc24)C3)CC1 [Example 67, (R)-1-(4-(7-(3-hydroxynaphthalen-1-yl)-2-((1-methylpiperidin-3-yl)oxy)-5,6,7,8-tetrahydropyrido[3,4-d]pyrimidin-4-yl)piperazin-1-yl)prop-2-en-1-one] | 1 to 1000 |
